Measurements from PubChem BioAssay AID248 (DTP/NCI, 2004).
Several values for one entry are separate records, joined by “and”; a condition that tells them apart may be missing. Identical values can stand only once. Toxic doses and inconclusive results are not listed. No stated cut-off is given here; in the data, active means T/C of 150% or more; inactive means T/C below 125%.

Test system: L1210 leukemia ip in BDF1 mice, survival T/C
Assay: NCI In Vivo Anticancer Drug Screen. Data for tumor model L1210 Leukemia (intraperitoneal) in B6D2F1 (BDF1) mice
Conditions: endpoint: mean survival time, higher = longer survival
Method in brief: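 Survival endpoint. Drug-treated group vs vehicle group, expressed as T divided by C. Tumor passaged by transplantation.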

[1] = dose: 25.0 mg/kg/injection, schedule: Q01DX009 (ip), vehicle: saline with Tween-80
[2] = dose: 50.0 mg/kg/injection, schedule: Q01DX009 (ip), vehicle: saline with Tween-80
[3] = dose: 50.0 mg/kg/injection, schedule: Q04DX003 (ip), vehicle: saline with Tween-80
[4] = dose: 100.0 mg/kg/injection, schedule: Q01DX001 (ip), vehicle: saline
[5] = dose: 100.0 mg/kg/injection, schedule: Q04DX003 (ip), vehicle: Klucel (hydroxypropylcellulose) (HPC)
[6] = dose: 200.0 mg/kg/injection, schedule: Q01DX001 (ip), vehicle: saline
[7] = dose: 100.0 mg/kg/injection, schedule: Q01DX001 (ip), vehicle: saline with Tween-80
[8] = dose: 200.0 mg/kg/injection, schedule: Q01DX001 (ip), vehicle: saline with Tween-80
[9] = dose: 400.0 mg/kg/injection, schedule: Q01DX001 (ip), vehicle: saline with Tween-80
[10] = dose: 100.0 mg/kg/injection, schedule: Q01DX001 (ip), vehicle: Klucel (hydroxypropylcellulose) (HPC)
[11] = dose: 200.0 mg/kg/injection, schedule: Q01DX001 (ip), vehicle: Klucel (hydroxypropylcellulose) (HPC)
[12] = dose: 400.0 mg/kg/injection, schedule: Q01DX001 (ip), vehicle: Klucel (hydroxypropylcellulose) (HPC)

Measured: T/C

Cc1nc2c(=O)[nH]c(=O)[nH]c2[nH]c1=O
inactive: dose: 16.0 mg/kg/injection, schedule: Q01DX Z (ip), vehicle: methylcellulose (MC) 89 % of control | dose: 31.0 mg/kg/injection, schedule: Q01DX Z (ip), vehicle: methylcellulose (MC) 95 % of control | dose: 62.0 mg/kg/injection, schedule: Q01DX Z (ip), vehicle: methylcellulose (MC) 93 % of control | dose: 100.0 mg/kg/injection, schedule: Q01DX001 (ip), vehicle: other 96 % of control | dose: 100.0 mg/kg/injection, schedule: Q04DX003 (ip), vehicle: other 100 % of control | dose: 125.0 mg/kg/injection, schedule: Q01DX Z (ip), vehicle: methylcellulose (MC) 101 % of control | dose: 200.0 mg/kg/injection, schedule: Q01DX001 (ip), vehicle: other 102 % of control | dose: 200.0 mg/kg/injection, schedule: Q04DX003 (ip), vehicle: other 111 % of control | dose: 400.0 mg/kg/injection, schedule: Q01DX001 (ip), vehicle: other 102 % of control | dose: 400.0 mg/kg/injection, schedule: Q04DX003 (ip), vehicle: other 107 % of control

O=C1CC2(CCCCC2)CO1
inactive: dose: 0.78 mg/kg/injection, schedule: Q04DX003 (ip), vehicle: saline 100 % of control | dose: 1.56 mg/kg/injection, schedule: Q04DX003 (ip), vehicle: saline 100 % of control | dose: 3.12 mg/kg/injection, schedule: Q04DX003 (ip), vehicle: saline 103 % of control | dose: 6.25 mg/kg/injection, schedule: Q04DX003 (ip), vehicle: saline 103 % of control | dose: 12.5 mg/kg/injection, schedule: Q04DX003 (ip), vehicle: saline 92 % of control

CCN(CC)CCOc1cc(C)ccc1C(C)C
inactive: [1] 93 % of control | dose: 50.0 mg/kg/injection, schedule: Q01DX009 (ip), vehicle: Klucel (hydroxypropylcellulose) (HPC) 102 % of control | [2] 93 % of control | dose: 50.0 mg/kg/injection, schedule: Q04DX003 (ip), vehicle: Klucel (hydroxypropylcellulose) (HPC) 100 % of control | [3] 100 % of control | [4] 98 % of control | dose: 100.0 mg/kg/injection, schedule: Q01DX009 (ip), vehicle: Klucel (hydroxypropylcellulose) (HPC) 103 % of control | dose: 100.0 mg/kg/injection, schedule: Q01DX009 (ip), vehicle: saline with Tween-80 113 % of control | [5] 96 % of control | dose: 100.0 mg/kg/injection, schedule: Q04DX003 (ip), vehicle: saline with Tween-80 95 % of control | [6] 113 % of control

N#CCCCSC(=N)N
inactive: [4] 106 % of control | [6] 104 % of control

NCCCCC(N)C(=O)Nc1ccc(Cc2ccc(NC(=O)C(N)CCCCN)cc2)cc1 (configuration not stated)
inactive: dose: 50.0 mg/kg/injection, schedule: Q01DX001 (ip), vehicle: saline 103 % of control | [4] 100 % of control

CC1=COC2(CC1)OC1CC3C4CCC5CC(O)CCC5(C)C4CCC3(C)C1C2C (configuration not stated)
inactive: [7] 96 % of control | [8] 102 % of control | [9] 95 % of control

Cc1ccc(NC(=S)NC(=O)/C=C/c2ccccc2)cc1Cl
inactive: [1] 94 % of control | [2] 96 % of control and 86 % of control | [7] 87 % of control | dose: 100.0 mg/kg/injection, schedule: Q04DX002 (ip), vehicle: saline with Tween-80 97 % of control | [8] 87 % of control | dose: 200.0 mg/kg/injection, schedule: Q04DX002 (ip), vehicle: saline with Tween-80 87 % of control and 89 % of control | dose: 400.0 mg/kg/injection, schedule: Q04DX002 (ip), vehicle: saline with Tween-80 87 % of control and 89 % of control

c1cc2c(c(NC3=NCCCO3)c1)CCCC2
inactive: dose: 12.5 mg/kg/injection, schedule: Q01DX009 (ip), vehicle: saline with Tween-80 95 % of control | [1] 106 % of control | [2] 106 % of control | [3] 101 % of control

O=c1cc(NC(c2ccccc2)c2ccccc2)[nH]c(=O)[nH]1
inactive: [5] 97 % of control | dose: 200.0 mg/kg/injection, schedule: Q04DX003 (ip), vehicle: Klucel (hydroxypropylcellulose) (HPC) 97 % of control | dose: 400.0 mg/kg/injection, schedule: Q04DX003 (ip), vehicle: Klucel (hydroxypropylcellulose) (HPC) 98 % of control

CC(=O)n1[nH]c(=O)c2ccccc2c1=O
inactive: [10] 103 % of control | [11] 105 % of control | [12] 103 % of control

CC(C)(CS(C)(=O)=O)NC(=O)NCCCl
inactive: dose: 100.0 mg/kg/injection, schedule: Q04DX002 (ip), vehicle: saline 103 % of control | dose: 200.0 mg/kg/injection, schedule: Q04DX002 (ip), vehicle: saline 92 % of control | dose: 400.0 mg/kg/injection, schedule: Q04DX002 (ip), vehicle: saline 103 % of control

C=CC[Se]c1ncnc2c1ncn2C1OC(CO)C(O)C1O (configuration not stated)
inactive: dose: 12.5 mg/kg/injection, schedule: Q01DX005 (ip), vehicle: saline 100 % of control | dose: 25.0 mg/kg/injection, schedule: Q01DX005 (ip), vehicle: saline 110 % of control | dose: 50.0 mg/kg/injection, schedule: Q01DX005 (ip), vehicle: saline 104 % of control | dose: 50.0 mg/kg/injection, schedule: Q01DX009 (ip), vehicle: saline 90 % of control | dose: 100.0 mg/kg/injection, schedule: Q01DX009 (ip), vehicle: saline 88 % of control

CC(=O)Oc1ccc(OC(C)=O)c2c1C(=O)c1ccccc1C2=O
inactive: dose: 50.0 mg/kg/injection, schedule: Q01DX001 (ip), vehicle: carboxymethylcellulose (CMC) 104 % of control | dose: 100.0 mg/kg/injection, schedule: Q01DX001 (ip), vehicle: carboxymethylcellulose (CMC) 110 % of control | dose: 200.0 mg/kg/injection, schedule: Q01DX001 (ip), vehicle: carboxymethylcellulose (CMC) 102 % of control | dose: 400.0 mg/kg/injection, schedule: Q01DX001 (ip), vehicle: carboxymethylcellulose (CMC) 110 % of control

COc1ccccc1OCCOCCN(C)C1CC2CCC1(C)C2(C)C (configuration not stated)
inactive: [5] 93 % of control

CC(C)(C)c1ccc(OS(=O)(=O)c2ccccc2[N+](=O)[O-])cc1
inactive: [10] 102 % of control | [11] 98 % of control | [12] 95 % of control

Cc1c(/C=N/N(CCO)CCO)[nH]c(=O)[nH]c1=O
inactive: [7] 103 % of control | [8] 103 % of control | [9] 98 % of control

CCOC(=O)c1[nH]c(=O)nc(N)c1Oc1ccccc1
inactive: dose: 50.0 mg/kg/injection, schedule: Q01DX001 (ip), vehicle: Klucel (hydroxypropylcellulose) (HPC) 98 % of control | [10] 92 % of control | [11] 93 % of control
